Data published in patent publication US20200131270A1, “COMBINATION USE OF INHIBITOR TARGETING PD-1/PD-L1 AND COX-2 INHIBITOR” (priority 2017, published 2020).

What was measured:
canine PBMCs = test: Cytokine production from canine PBMCs stimulated with SEB and anti-CD28 (ELISA); format: cell-based; details: PGE2 2.5 μM; SEB + anti-CD28, 3 days
BLV provirus = format: cell-based, cattle
[1] = tested on: PBMCs derived from uninfected cattle; test: PD-L1 protein expression in bovine PBMCs (flow cytometry); format: cell-based; details: PGE2 added, 24 hours
[2] = tested on: PBMCs derived from uninfected cattle; test: PBMC culture under anti-CD3/anti-CD28 stimulation: cell proliferation (CFSE) and cytokine production (ELISA); details: 3 days
[3] = tested on: PBMCs derived from uninfected cattle; test: mRNA expression in bovine PBMCs (real-time PCR); format: cell-based
Protocol: Using the synthesized cDNA as a template, real-time PCR was performed with LightCycler480 System II (Roche) in a 10 μl reaction solution containing SYBR Premix DimerEraser (TaKaRa) and 3 pmol each of the primers specific to individual genes. Then, changes in expression levels of individual genes were observed. After 45 cycles of thermal denaturation, annealing and extension, the temperature was raised from 65° C. to 95° C. at 0.1° C./sec for melting curve analysis. The melting temperatures of amplified products were measured to confirm specificity. For each sample, expression levels of genes ACTB and GAPDH were quantified as internal standards. […] Then, real-time PCR was performed using PDL1 specific primers.

[4] = PGE2 25 nM, 250 nM and 2,500 nM

`CCCCC[C@H](O)/C=C/[C@H]1[C@H](O)CC(=O)[C@@H]1C/C=C\CCCC(=O)O` [PGE2, prostaglandin E2] was tested, and the “IFN-γ production from canine PBMCs” value (canine PBMCs) was “significantly decreased”, the “IL-2 production from canine PBMCs” value (canine PBMCs) was “significantly decreased” and the “BLV provirus load in PBMCs” value (BLV provirus) was “increase significantly”. For the same compound, the “expression of PD-L1 protein” value [1] was “significantly increased”, the IFN-γ production [2, 4] was “significantly inhibited” and the “proliferation of CD4^+ cells” value [2, 4] was “significantly inhibited”. The “proliferation of CD8^+ cells” value [2, 4] was “significantly inhibited”, the TNF-α production ([2]; PGE2 2,500 nM) was “significantly inhibited” and the “expression level of Foxp3” value ([3]; PGE2 2,500 nM, 3 days) was “significantly increased”. For the same compound, the “expression level of IFNγ” value ([3]; PGE2 2,500 nM, 3 days) was “significantly decreased”, the “expression level of IL-2” value ([3]; PGE2 2,500 nM, 3 days) was “significantly decreased” and the “expression level of IL-10” value ([3]; PGE2 2,500 nM, 3 days) was “significantly increased”. For the same compound, the “expression level of STAT3” value ([3]; PGE2 2,500 nM, 3 days) was “significantly increased”, the “expression level of TGFβ1” value ([3]; PGE2 2,500 nM, 3 days) was “significantly increased” and the “expression level of TNFα” value ([3]; PGE2 2,500 nM, 3 days) was “significantly decreased”. The “expression of PD-L1 mRNA” value ([3]; PGE2 added, 24 hours) was “significantly increased”.
